The text below walks through data of patent EP0145493A2, “11-Difluoromethyl and 11-fluoromethylene steroids” (THE UPJOHN COMPANY, priority 1983, dated 1985).

This test deals with T1, progesterone receptor (Oryctolagus cuniculus, UniProt P06186).
T1 construct: 'Rabbit, progesterone = 100%; from tissue; host or cells: Rabbit; From own knowledge, the cited Philibert procedure uses uterine cytosol
T1 sequence (P06186 1-930): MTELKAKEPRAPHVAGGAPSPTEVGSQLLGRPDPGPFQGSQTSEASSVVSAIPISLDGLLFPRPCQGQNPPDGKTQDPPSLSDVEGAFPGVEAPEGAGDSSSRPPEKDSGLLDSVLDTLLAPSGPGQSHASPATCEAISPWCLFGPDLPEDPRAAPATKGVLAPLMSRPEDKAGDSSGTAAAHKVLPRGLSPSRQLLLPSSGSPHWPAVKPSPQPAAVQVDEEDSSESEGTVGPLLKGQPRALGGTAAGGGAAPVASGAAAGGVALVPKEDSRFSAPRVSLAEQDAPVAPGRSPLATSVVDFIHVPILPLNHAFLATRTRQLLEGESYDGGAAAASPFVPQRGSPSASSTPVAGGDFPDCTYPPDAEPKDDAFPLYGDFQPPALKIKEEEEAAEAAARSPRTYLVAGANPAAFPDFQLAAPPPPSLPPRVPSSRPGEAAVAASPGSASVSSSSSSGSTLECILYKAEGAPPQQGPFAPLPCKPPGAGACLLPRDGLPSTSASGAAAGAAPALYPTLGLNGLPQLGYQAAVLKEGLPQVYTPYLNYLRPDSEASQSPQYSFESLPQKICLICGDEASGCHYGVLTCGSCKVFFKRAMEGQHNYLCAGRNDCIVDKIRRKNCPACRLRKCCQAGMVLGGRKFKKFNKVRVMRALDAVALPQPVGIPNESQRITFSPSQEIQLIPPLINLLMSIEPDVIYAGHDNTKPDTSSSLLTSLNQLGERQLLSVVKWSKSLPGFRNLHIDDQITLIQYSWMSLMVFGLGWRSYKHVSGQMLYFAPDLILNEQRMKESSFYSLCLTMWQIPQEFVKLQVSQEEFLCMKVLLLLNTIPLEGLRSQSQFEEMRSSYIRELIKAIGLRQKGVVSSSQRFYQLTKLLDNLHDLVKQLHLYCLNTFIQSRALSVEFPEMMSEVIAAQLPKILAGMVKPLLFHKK
In words: progesterone receptor relative binding affinity (procedure of Philibert et al.). Conditions: Rabbit, progesterone = 100%. An excerpt:
Biological information in the form of progesterone receptor relative binding affinity data determined according to the procedure of D. Philibert et al, Endocrinology 101, 1850 (1977) set forth in TABLE 1 discloses the 11β-difluoromethyl and (E)-11-fluoromethylene steroids to be useful as progestins.
'Rabbit, progesterone = 100%
With `CC#C[C@]1(O)CC[C@H]2[C@@H]3CCC4C=CCC[C@@H]4[C@H]3[C@@H](C(F)F)C[C@@]21C` (stereo partly drawn) [11β-Difluoromethyl-17β-hydroxy-17α-propynylestr-3-ene], the “Relative Binding Affinity' (%)” value turned out to be 2%.

In the case of `C#C[C@]1(O)CC[C@H]2[C@@H]3CCC4=CC(=O)CC[C@@H]4[C@H]3/C(=C/F)C[C@@]21C` [17α-Ethynyl-(E)-11-fluoromethylene-17β-hydroxyestr-4-en-3-one], the “Relative Binding Affinity' (%)” value is on record as 74%.

With `CC#CC1(OC)CCC2C3CCC4=CC(=O)CCC4C3C(C(F)F)CC21C` (stereo not drawn) [11β-Difluoromethyl-17β-hydroxy-17α-propynylestr-4-en-3-one 17-methyl ether], the “Relative Binding Affinity' (%)” value turned out to be 90%.

For the compound `CC#C[C@]1(O)CC[C@H]2[C@@H]3CCC4=CC(=O)CC[C@@H]4[C@H]3[C@@H](C(F)F)C[C@@]21C` [11β-Difluoromethyl-17β-hydroxy-17α-propynylestr-4-en-3-one], the “Relative Binding Affinity' (%)” value was found to be 68%.

Take `CC#C[C@]1(O)CC[C@H]2[C@H]3[C@H]([C@@H](C(F)F)C[C@@]21C)[C@H]1CCC(=O)C=C1C[C@H]3C` [11β-Difluoromethyl-17β-hydroxy-7α-methyl-17α-propynylestr-4-en-3-one]: the “Relative Binding Affinity' (%)” value is 41%.

With `CC#CC1(OC)CCC2C3CCC4=CC(=O)CCC4C3C(=CF)CC21C` (stereo not drawn) [(E)-11-Fluoromethylene-17β-hydroxy-17α-propynylestr-4-en-3-one 17-methyl ether], the “Relative Binding Affinity' (%)” value stood at 71%.

With `CC#C[C@]1(O)CC[C@H]2[C@@H]3CCC4=CCCC[C@@H]4[C@H]3[C@@H](C(F)F)C[C@@]21C` [11β-Difluoromethyl-17β-hydroxy-17α-propynylestr-4-ene], the “Relative Binding Affinity' (%)” value is on record as 3%.

As for `CC#C[C@]1(O)CC[C@H]2[C@H]3[C@H](/C(=C/F)C[C@@]21C)[C@H]1CCC(=O)C=C1C[C@H]3C` [(E)-11-Fluoromethylene-17β-hydroxy-7α-methyl-17α-propynylestr-4-en-3-one], the “Relative Binding Affinity' (%)” value worked out at 58%.

Take `CC#C[C@]1(O)CC[C@H]2[C@@H]3CCC4=CC(=O)CC[C@@H]4[C@H]3/C(=C\F)C[C@@]21CC` [13β-Ethyl-(Z)-11-fluoromethylene-17β-hydroxy-17α-propynylgon-4-en-3-one]: the “Relative Binding Affinity' (%)” value was 149%.

Take `C#CC1(OC(C)=O)CCC2C3CCC4=CC(=O)CCC4C3C(C(F)F)CC21C` (stereo not drawn) [17α-Ethynyl-11β-difluoromethyl-17β-hydroxyestr-4-en-3-one 17-acetate]: the “Relative Binding Affinity' (%)” value is listed as 50%.

With `CC#C[C@]1(O)CC[C@H]2[C@@H]3CCC4=CC(=O)CC[C@@H]4[C@H]3/C(=C/F)C[C@@]21C` [(E)-11-fluoromethylene-17β-hydroxy-17α-propynylestr-4-ene-3-one], the “Relative Binding Affinity' (%)” value came out at 18%.

With `CC#CC1(OC(C)=O)CCC2C3CCC4=CC(=O)CCC4C3C(C(F)F)CC21C` (stereo not drawn) [11β-Difluoromethyl-17β-hydroxy-17α-propynylestr-4-en-3-one 17-acetate], the “Relative Binding Affinity' (%)” value is 49%.

As for `C#CC1(O)CCC2C3CCC4=CC5(CCC4C3C(C(F)F)CC21C)SCCS5` (stereo not drawn) [17α-Ethynyl-11β-difluoromethyl-17β-hydroxyestr-4-ene-3-one 3-ethanedithiol ketal], the “Relative Binding Affinity' (%)” value is 92%.

As to `C[C@]12C[C@H](C(F)F)[C@H]3[C@@H](CCC4=CC(=O)CC[C@@H]43)[C@@H]1CC[C@@H]2O` [11β-Difluoromethyl-17β-hydroxyestr-4-en-3-one], the “Relative Binding Affinity' (%)” value is recorded as 13%.

In the case of `C#C[C@]1(O)CC[C@H]2[C@H]3[C@H](/C(=C/F)C[C@@]21C)[C@H]1CCC(=O)C=C1C[C@H]3C` [17α-Ethynyl-(E)-11-fluoromethylene-17β-hydroxy-7α-methylestr-4-en-3-one], the “Relative Binding Affinity' (%)” value stood at 34%.

Take `C#CC1(OC)CCC2C3CCC4=CC(=O)CCC4C3C(C(F)F)CC21C` (stereo not drawn) [17α-Ethynyl-11β-difluoromethyl-17β-hydroxyestr-4-en-3-one 17-methyl ether]: the “Relative Binding Affinity' (%)” value amounted to 145%.

Turning to `C#C[C@]1(O)CC[C@H]2[C@@H]3CCC4=CC(=O)CC[C@@H]4[C@H]3/C(=C\F)C[C@@]21C` [17α-Ethynyl-(Z)-11-fluoromethylene-17β-hydroxyestr-4-en-3-one], the “Relative Binding Affinity' (%)” value stood at 149%.

With `C#C[C@]1(O)CC[C@H]2[C@@H]3CCC4=CC(=O)CC[C@@H]4[C@H]3/C(=C/F)C[C@@]21CC` [13β-Ethyl-17α-ethynyl-(E)-11-fluoromethylene-17β-hydroxygon-4-en-3-one], the “Relative Binding Affinity' (%)” value is 100%.

Regarding `CC#C[C@]1(O)CC[C@H]2[C@@H]3CCC4=CC(=O)CC[C@@H]4[C@H]3/C(=C\F)C[C@@]21C` [(Z)-11-Fluoromethylene-17β-hydroxy-17-propynylestr-4-en-3-one], the “Relative Binding Affinity' (%)” value turned out to be 150%.

`C#C[C@]1(O)CC[C@H]2[C@@H]3CCC4=CCCC[C@@H]4[C@H]3[C@@H](C(F)F)C[C@@]21C` [17α-Ethynyl-11β-difluoromethyl-17β-hydroxyestr-4-ene]: the “Relative Binding Affinity' (%)” value is reported as 2%.

As to `C#C[C@]1(O)CC[C@H]2[C@H]3[C@H]([C@@H](C(F)F)C[C@@]21C)[C@H]1CCC(=O)C=C1C[C@H]3C` [17α-Ethynyl-11β-difluoromethyl-17β-hydroxy-7α-methylestr-4-en-3-one], the “Relative Binding Affinity' (%)” value was found to be 63%.

On to `CO[C@H]1CC[C@H]2[C@@H]3CCC4=CC(=O)CC[C@@H]4[C@H]3[C@@H](C(F)F)C[C@]12C` [11β-Difluoromethyl-17β-hydroxyestr-4-en-3-one 17-methyl ether], for which the “Relative Binding Affinity' (%)” value is listed as 66%.

As for `CC#C[C@]1(O)CC[C@H]2[C@@H]3CCC4=CC(=O)CC[C@@H]4[C@H]3/C(=C/F)C[C@@]21CC` [13β-Ethyl-(E)-11-fluoromethylene-17β-hydroxy-17α-propynylgon-4-en-3-one], the “Relative Binding Affinity' (%)” value came to 63%.
